According to patent US9376442B2, “Methylpyrrolopyrimidinecarboxamides” (Takeda GmbH, priority 2009, dated 2016):

How the values were obtained:
PDE4B1 = biological target: T1, PDE4B1 (Homo sapiens, UniProt Q07343); assay: Inhibition of type 4 phosphodiesterase (PDE4) activity, modified SPA test with recombinant PDE4B1 expressed in SF21 insect cells; type: biochemical; details: recombinant PDE4B1, 0.5 μM cAMP, read-out: PDE4B1 inhibitory values [measured as −log IC50 (mol/l)] (converted)
T1 construct: made in house; host or cells: SF21 insect cells (baculovirus; pCRBac vector), 1000 x g supernatant of homogenate
T1 sequence (Q07343 whole entry): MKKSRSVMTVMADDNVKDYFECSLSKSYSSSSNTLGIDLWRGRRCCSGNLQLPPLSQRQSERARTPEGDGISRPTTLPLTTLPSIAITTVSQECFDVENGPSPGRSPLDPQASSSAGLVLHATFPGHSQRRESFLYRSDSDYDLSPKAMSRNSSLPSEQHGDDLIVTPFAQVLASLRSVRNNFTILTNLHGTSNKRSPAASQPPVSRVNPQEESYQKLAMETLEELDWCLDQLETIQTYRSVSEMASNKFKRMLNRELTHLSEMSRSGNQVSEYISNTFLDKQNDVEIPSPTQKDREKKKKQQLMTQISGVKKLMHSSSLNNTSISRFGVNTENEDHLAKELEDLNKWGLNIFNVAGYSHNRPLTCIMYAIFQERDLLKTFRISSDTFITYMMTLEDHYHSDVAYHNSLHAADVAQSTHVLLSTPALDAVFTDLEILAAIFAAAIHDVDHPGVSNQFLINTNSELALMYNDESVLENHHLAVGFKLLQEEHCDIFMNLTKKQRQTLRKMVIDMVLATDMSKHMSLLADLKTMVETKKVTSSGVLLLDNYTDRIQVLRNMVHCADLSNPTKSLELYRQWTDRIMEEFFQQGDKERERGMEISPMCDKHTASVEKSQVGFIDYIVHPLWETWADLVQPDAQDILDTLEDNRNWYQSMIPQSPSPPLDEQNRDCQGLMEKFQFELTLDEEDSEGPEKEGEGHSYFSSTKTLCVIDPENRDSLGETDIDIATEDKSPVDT
How it was run: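 Modified [3H]cAMP SPA using 1000×g supernatant of SF21 cells expressing recombinant human PDE4B1, in 20 mM Tris pH 7.4, 0.1 mg/ml BSA, 5 mM Mg2+, 0.5 μM cAMP. After 5 min preincubation at 37 °C, 15 min reaction, stopped with SPA beads plus IBMX; IC50 by non-linear regression.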

PDE5A1 = biological target: T2, PDE5A1 (Homo sapiens, UniProt O76074); assay: Inhibition of type 5 phosphodiesterase (PDE5) activity, modified SPA test with human platelet lysate; type: biochemical; details: 0.5 μM cGMP, read-out: PDE5A1 inhibitory values [measured as −log IC50 (mol/l)] (converted)
T2 construct: from tissue; host or cells: human platelets from fresh donor blood (10,000 x g supernatant of sonicated lysate)
How it was run: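 Scintillation proximity assay with [3H]cGMP tracer at 0.5 μM total cGMP, stopped after 15 min with beads containing IBMX. PDE3 and PDE2 activities suppressed with motapizone (1 μM) and a PDE2 inhibitor (10 nM). Human platelet supernatant served as the enzyme, with compound preincubated 5 min at 37° C; IC50 values from concentration-effect curves.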

Row | SMILES | IC50 (PDE4B1) [nM] | IC50 (PDE5A1) [nM]
1 | CCC(=O)N1CCC(NC(=O)c2c(C)[nH]c3c(-c4cc(OC)ccc4OCC4CC4)ncnc23)CC1 [Example E67, 4-[2-(Cyclopropylmethoxy)-5-methoxyphenyl]-6-methyl-N-(1-propionylpiperidin-4-yl)-5H-pyrrolo[3,2-d]pyrimidine-7-carboxamide] | 100 to 1000 | < 1
2 | COc1ccc(OCC2CC2)c(-c2ncnc3c(C(=O)N[C@H]4CC[C@H](NC(C)=O)CC4)c(C)[nH]c23)c1 [Example E69, N-(trans-4-acetamidocyclohexyl)-4-[2-(cyclopropylmethoxy)-5-methoxyphenyl]-6-methyl-5H-pyrrolo[3,2-d]pyrimidine-7-carboxamide] | 100 to 1000 | < 1
3 | Cc1ccc(OCC2CC2)c(-c2ncnc3c(C(=O)N[C@H]4CCC[C@@H]4O)c(C)[nH]c23)c1 [Example E176, 4-[2-(Cyclopropylmethoxy)-5-methylphenyl]-N-[(1S,2S)-2-hydroxycyclopentyl]-6-methyl-5H-pyrrolo[3,2-d]pyrimidine-7-carboxamide] | < 100 | < 1
4 | COCC(=O)N[C@H]1CC[C@H](NC(=O)c2c(C)[nH]c3c(-c4cc(C(F)(F)F)ccc4OCC4CC4)ncnc23)CC1 [Example E95, 4-[2-(Cyclopropylmethoxy)-5-(trifluoromethyl)phenyl]-N-{trans-4-[(methoxyacetyl)amino]cyclohexyl}-6-methyl-5H-pyrrolo[3,2-d]pyrimidine-7-carboxamide] | < 100 | < 1
5 | CC(=O)N[C@H]1CC[C@H](NC(=O)c2c(C)[nH]c3c(-c4cc(C(F)(F)F)ccc4OCC4CC4)ncnc23)CC1 [Example E93, N-[trans-4-(acetylamino)cyclohexyl]-4-[2-(cyclopropylmethoxy)-5-(trifluoromethyl)phenyl]-6-methyl-5H-pyrrolo[3,2-d]pyrimidine-7-carboxamide] | < 100 | < 1
6 | COCC(=O)N[C@H]1CC[C@H](NC(=O)c2c(C)[nH]c3c(-c4cc(OC)ccc4OCC4CC4)ncnc23)CC1 [Example E71, 4-[2-(Cyclopropylmethoxy)-5-methoxyphenyl]-N-{trans-4-[(methoxyacetyl)amino]cyclohexyl}-6-methyl-5H-pyrrolo[3,2-d]pyrimidine-7-carboxamide] | 100 to 1000 | < 1
7 | CCC(=O)N[C@H]1CC[C@@H](NC(=O)c2c(C)[nH]c3c(-c4cc(C(F)(F)F)ccc4OCC4CC4)ncnc23)CC1 [Example E97, 4-[2-(Cyclopropylmethoxy)-5-(trifluoromethyl)phenyl]-6-methyl-N-[cis-4-(propanoylamino)cyclohexyl]-5H-pyrrolo[3,2-d]pyrimidine-7-carboxamide] | < 100 | < 1
8 | CC(=O)N1CCC(NC(=O)c2c(C)[nH]c3c(-c4cc(C(C)C)ccc4OCC4CC4)ncnc23)CC1 [Example E157, N-(1-Acetylpiperidin-4-yl)-4-[2-(cyclopropylmethoxy)-5-(propan-2-yl)phenyl]-6-methyl-5H-pyrrolo[3,2-d]pyrimidine-7-carboxamide] | 100 to 1000 | < 1

Continued, values first:

Row | IC50 (PDE4B1) [nM] | IC50 (PDE5A1) [nM] | SMILES
9 | 100 to 1000 | < 1 | Cc1ccc(OCC2CC2)c(-c2nc(C)nc3c(C(=O)NC4CCN(C(=O)CO)CC4)c(C)[nH]c23)c1 [Example F106, 4-[2-(Cyclopropylmethoxy)-5-methylphenyl]-N-[1-(hydroxyacetyl)piperidin-4-yl]-2,6-dimethyl-5H-pyrrolo[3,2-d]pyrimidine-7-carboxamide]
10 | 100 to 1000 | < 1 | Cc1[nH]c2c(-c3cc(C(C)C)ccc3OCC3CC3)ncnc2c1C(=O)NC1CCN(C(=O)[C@H](C)O)CC1 [Example F99, 4-[2-(Cyclopropylmethoxy)-5-(propan-2-yl)phenyl]-N-{1-[(2S)-2-hydroxypropanoyl]piperidin-4-yl}-6-methyl-5H-pyrrolo[3,2-d]pyrimidine-7-carboxamide]
11 | < 100 | < 1 | Cc1ccc(OCC2CC2)c(-c2ncnc3c(C(=O)N[C@H]4CC[C@H](NC(=O)CO)CC4)c(C)[nH]c23)c1 [Example F53, 4-[2-(Cyclopropylmethoxy)-5-methylphenyl]-N-{trans-4-[(hydroxyacetyl)amino]cyclohexyl}-6-methyl-5H-pyrrolo[3,2-d]pyrimidine-7-carboxamide]
12 | 100 to 1000 | < 1 | COc1ccc(OCC2CC2)c(-c2ncnc3c(C(=O)N[C@H]4CC[C@@H](NC(=O)[C@H](C)O)CC4)c(C)[nH]c23)c1 [Example F46, 4-[2-(cyclopropylmethoxy)-5-methoxyphenyl]-N-(cis-4-{[(2S)-2-hydroxypropanoyl]amino}cyclohexyl)-6-methyl-5H-pyrrolo[3,2-d]pyrimidine-7-carboxamide]
13 | < 100 | < 1 | CCC(=O)N[C@H]1CC[C@H](NC(=O)c2c(C)[nH]c3c(-c4cc(C(F)F)ccc4OCC4CC4)ncnc23)C1 [Example P90, 4-[2-(Cyclopropylmethoxy)-5-(difluoromethyl)phenyl]-6-methyl-N-[(1S,3S)-3-(propanoylamino)cyclopentyl]-5H-pyrrolo[3,2-d]pyrimidine-7-carboxamide]
14 | < 100 | < 1 | Cc1[nH]c2c(-c3cc(F)ccc3OCC3CC3)ncnc2c1C(=O)N[C@H]1CC[C@H](NC(=O)[C@H](C)O)CC1 [Example F26, 4-[2-(Cyclopropylmethoxy)-5-fluorophenyl]-N-(trans-4-{[(2S)-2-hydroxypropanoyl]amino}cyclohexyl)-6-methyl-5H-pyrrolo[3,2-d]pyrimidine-7-carboxamide]
15 | < 100 | < 1 | CC(=O)N[C@H]1CC[C@H](NC(=O)c2c(C)[nH]c3c(-c4cc(C(F)F)ccc4OCC4CC4)ncnc23)C[C@H]1F (relative stereo) [Example P199, N-[(1S*,3R*,4S*)-4-(Acetylamino)-3-fluorocyclohexyl]-4-[2-(cyclopropylmethoxy)-5-(difluoromethyl)phenyl]-6-methyl-5H-pyrrolo[3,2-d]pyrimidine-7-carboxamide]
16 | < 100 | < 1 | Cc1ccc(OCC2CC2)c(-c2ncnc3c(C(=O)NC4CCN(C(=O)CO)CC4)c(C)[nH]c23)c1 [Example F51]
17 | < 100 | < 1 | Cc1[nH]c2c(-c3cc(C(F)(F)F)ccc3OCC3CC3)ncnc2c1C(=O)N[C@H]1CC[C@H](NC(=O)[C@H](C)O)CC1 [Example F60, 4-[2-(Cyclopropylmethoxy)-5-(trifluoromethyl)phenyl]-N-(trans-4-{[(2S)-2-hydroxypropanoyl]amino}cyclohexyl)-6-methyl-5H-pyrrolo[3,2-d]pyrimidine-7-carboxamide]
18 | < 100 | < 1 | CCc1ccc(OCC2CC2)c(-c2ncnc3c(C(=O)NC4CCC(NC(=O)C(C)O)CC4)c(C)[nH]c23)c1 (stereo not drawn) [Example F96, 4-[2-(Cyclopropylmethoxy)-5-ethylphenyl]-N-(cis-4-{[(25)-2-hydroxypropanoyl]amino}cyclohexyl)-6-methyl-5H-pyrrolo[3,2-d]pyrimidine-7-carboxamide]
19 | < 100 | < 1 | CCC(=O)N[C@H]1CC[C@H](NC(=O)c2c(C)[nH]c3c(-c4cc(C(F)F)ccc4OCC4CC4)ncnc23)[C@@H](C)C1 (relative stereo) [Example P140, 4-[2-(Cyclopropylmethoxy)-5-(difluoromethyl)phenyl]-6-methyl-N-[(1S*,2S*,4S*)-2-methyl-4-(propanoylamino)cyclohexyl]-5H-pyrrolo[3,2-d]pyrimidine-7-carboxamide]
